Measurements reported in patent US20080317769A1, “Vaccine Composition Comprising Alpha-Galactosylceramide as an Adjuvant For Intranasal Administration” (priority 2005, published 2008).
Entries after “also recorded” stand apart in the source; their conditions may differ.

Legend:
live PR8 virus = experiment: Plaque assay of live PR8 virus in the lung wash after 20 LD50 challenge; format: in vivo; conditions: Balb/c mice; 10 μg inactivated PR8 + αGalCer intranasal; three days after 20 LD50 live PR8
Description: (§1) To examine the role of αGalCer as an adjuvant of a killed virus, influenza virus A/PR/8/34 (PR8), which was inactivated with formalin, was used as an antigen to examine the anti-virus immune response. Balb/c mice were immunized with indicated amounts (1 μg, 10 μg) of inactivated PR8 alone or together with αGalCer by the intranasal administration twice at two-week intervals. Two weeks after the final immunization, the mice were sacrificed and following experiments were performed.
Immunized mice were infected with 20 LD50 of live PR8 virus and sacrificed three days later to obtain the lung wash. The amounts of live PR8 virus in the lung wash were measured by plaque assay. Particularly, MDCK cells (purchased from ATCC) were cultured in a 6 well plate at the density of 95-100%. The lung wash was 10-fold diluted by using a medium serially, which was added to the plate, followed by infection for one hour. Then, the lung wash was eliminated. An agarose containing medium was added thereto, followed by further culture in a CO2 incubator for 2-3 days. The numbers of plaques formed therein were counted with the naked eye.

[1] = test system: OVA-specific antibody responses; experiment: OVA-specific antibody responses by ELISA after intranasal co-administration of OVA and αGalCer, C57BL/6 mice; format: in vivo
Description: To investigate the activity of αGalCer as an adjuvant in mucosa, required amount of αGalCer and 100 μg of OVA or 100 μg of OVA alone was diluted with PBS, making 20 μl solution (10 μl/nostril), which was administered to C57BL/6 mice or Balb/c mice (Charles River Laboratories, Orient Co., Ltd., Korea) at 6-8 weeks three times at one-week intervals.
Six to eight-weeks-old […] mice (Charles River Laboratories, Orient Co., Ltd., Korea) were immunized with 100 μg of OVA alone or together with the indicated amounts of αGalCer (0.125, 0.5, 2.0 μg), diluted with PBS and made 20 μl (10 μl/nostril) solution, three times at one-week intervals.
A week after the final immunization, the mice were sacrificed. OVA-specific antibody responses were measured by ELISA. The nasal wash sample was obtained by washing the nasal passage with 100 μl of sterilized PBS (Yamamoto et al., J. Immunol., 161: 4115, 1998), and bronchoalveolar lavage fluid was also obtained by the same manner as described to prepare the lung wash (Chung et al., Immunobiology 206: 408, 2002).
OVA-specific IgG titers in the nasal wash and the lung wash were measured (Chung et al., Immunobiology 206: 408, 2002). To measure IgA, IgG1 and IgG2a titers, two-fold serially diluted samples were used. To determine IgA titer, horseradish-peroxidase-conjugated goat anti-mouse IgA (SIGMA, USA), peroxidase substrate and TMB (SIGMA, USA) were used and 0.5 N—HCL was added thereto to terminate color development. Then, OD450 was measured. To determine IgG, IgG1 and IgG2a titers, alkaline phosphatase-conjugated goat anti-mouse IgG, IgG1 and IgG2a (Southern Biotech, USA) and alkaline phosphatase substrate, p-nitrophenyl phosphate (SIGMA), were used.
To assess the immune bias towards Th1 or Th2 immune responses induced by α-GalCer nasal vaccine adjuvant indirectly, IgG isotypes in serum were determined and the ratios of IgG1 to IgG2a were calculated.

EG7 tumor cells = experiment: EG7 tumor challenge after intranasal immunization with OVA and αGalCer; format: in vivo; conditions: C57BL/6 mice, 3×10^6 EG7 cells s.c., day 14
Description: To confirm whether αGalCer could be used as a nasal vaccine adjuvant inducing anticancer activity, C57BL/6 mice were immunized with 100 μg of OVA alone or together with αGalCer (0.125, 0.5, 2.0 μg) by the intranasal administration three times at one-week intervals. Two weeks after the final immunization, 3×10^6 EG7 tumor cells were subcutaneously inoculated in the left flank of the immunized mice. On the 14th day of the inoculation, the mice were sacrificed and the palpable tumors were weighed.

[2] = test system: P815 tumor cells infected with live PR8 virus; experiment: 51Cr release assay for CTL activity against PR8-infected P815 target cells; format: in vivo; conditions: Balb/c mice; inactivated PR8 with or without αGalCer intranasal; splenocytes, 51Cr-labeled PR8-infected P815 targets, 6 hours
Description: as §1
Single cells, separated from the spleen of the sacrificed mice, were cultured with stimulator cells for 5 days. To obtain stimulator cells, single cells were taken from the spleen of a naïve Balb/c mouse, which was irradiated with γ-ray, resulting in the inactivation of the cells. Then, the inactivated cells were infected with a live PR8 virus. After culturing splenocytes with stimulator cell for five days, effector cells were three-fold diluted serially, followed by further culture with ^51Cr-labeled target cells for 6 hours. Then, the amounts of ^51Cr […] in the culture supernatant were measured. The target cells were prepared by infecting P815 tumor cells (purchased from ATCC) with live PR8 virus and labeled with ^51Cr.

[3] = test system: OT1 cells (OVA specific CD8+ T cells); experiment: CD25 surface expression of adoptively transferred CFSE-labeled OT1 cells in CLN (FACS); format: in vivo, mouse; conditions: 100 μg OVA + 2.0 μg αGalCer intranasal vs OVA alone; 48 hours later
Description: To investigate the effect of αGalCer on the activation of T cells, the surface expression of CD25 in CFSE-labeled OT1 cells (OVA specific CD8+ T cells), which were adoptively transferred into syngenic mice, was measured. OT1 cells were separated from OT1 mouse by using CD8α (Ly-2) magnetic bead (Mitenyl Biotech), which were labeled with 10 μM of CFSE at 37° C. for 15 minutes and then transferred intravenously into a syngenic mouse. One day after the adoptive transfer, the intranasal administration of 100 μg of OVA alone or together with 2.0 μg of αGalCer was performed thereto. 48 hours later, the expression of CD25 in CLN was investigated with FACS.

[4] = test system: IFN-γ and IL-4 production; experiment: IFN-γ and IL-4 levels in spleen and CLN, Balb/c mice; format: in vivo
Description: It was directly investigated whether α-GalCer nasal vaccine adjuvant skews immune response into Th1 or Th2 immune response. To measure the secretions of cytokines, cells were obtained from spleen and cervical lymph node (CLN) a week after the final immunization. The cells ([…]) were cultured with 500 μg/ml of OVA for 4 days. The secretions of IFN-γ and IL-4 in the culture supernatant were measured by using the mouse IFN-γ and IL-4 OptELA set ELISA kit (BD Pharmigen) according to the manufacturer's instruction.
As described in Example 2, different amounts of αGalCer (0.125, 0.5, 2.0 μg) and OVA were intranasally administered to Balb/c mice (Charles River Laboratories, Oriet Co., Ltd., Korea), followed by measurement of the levels of IFN-γ and IL-4 in spleen and CLN.

## CCCCCCCCCCCCCCCCCCCCCCCCCC(=O)N[C@@H](CO[C@H]1O[C@H](CO)[C@H](O)[C@H](O)[C@H]1O)[C@H](O)[C@H](O)CCCCCCCCCCCCCC [αGalCer, alpha-galactosylceramide]
Live PR8 virus
  plaques of live PR8 virus in the lung wash: no plaque was observed
[1]; 2.0 μg αGalCer + 100 μg OVA intranasal, three times at one-week intervals, vs vehicle alone or OVA alone
  OVA-specific IgA responses in the nasal wash and the lung wash: significantly higher; also recorded: increased
[1]; co-administration of αGalCer and OVA intranasal
  OVA-specific Th2 type IgG1 and Th1 type IgG2a levels in serum: remarkable increase; also recorded: increased
[1]; αGalCer 0.125, 0.5, 2.0 μg + 100 μg OVA intranasal, vs vehicle alone or OVA alone
  OVA-specific IgG in serum: higher levels
EG7 tumor cells; 0.125 μg αGalCer + 100 μg OVA intranasal
  fraction of mice with tumor masses: ⅓
EG7 tumor cells; 0.5 μg and 2.0 μg αGalCer together with OVA intranasal
  tumor formation: completely inhibited
[2]
  target cell-specific lytic activity: observed only in mice concurrently treated with αGalCer; also recorded: strong lytic activity
[3]
  level of OT1 cells expressing CD25 in CLN: higher
[4]; 0.5 μg of αGalCer intranasally coadministered with OVA
  IL-4 level in spleen, comparison of αGalCer doses: highest level of IL-4
[4]; all groups coimmunized with αGalCer (0.125, 0.5, 2.0 μg) and OVA
  production of IFN-γ and IL-4 in spleen and CLN: significant increase
[4]; αGalCer dose series + OVA intranasal
  level of mucosal IgA in the lung wash and production of IL-4 in CLN, relation to the amount of αGalCer: inverse proportion
